Source: US7695923B2, “CFTR polypeptides methods to overcome biosynthetic misprocessing” (Mayo Foundation for Medical Education and Research, priority 1999, dated 2010)
“Also recorded” adds a separate entry of the source.

Columns and labels:
[1] = test system: BHK cells; assay: cAMP stimulated 36Cl- efflux from CFTR expressing cells; type: cell-based, Baby hamster; conditions: stimulation with IBMX, Forskolin, dibutyryl cyclic AMP
Method: Wild-type and ΔF508 CFTR expressing cells with each of the individual R[…]K substitutions, or all four lysine substitutions were grown to confluence in six well culture dishes. The cells were washed with a modified Ringer's buffer solution (136 mM NaNO3, 3 mM KNO3, 2 mM Ca(NO3)2, 2 mM Mg(NO3)2, 10 mM glucose and 20 mM HEPES, pH 7.4) and loaded for 60 min at room temperature with the same buffer supplemented with 1 μCi Na^36Cl (Amersham) in a volume of 0.5 ml per well. Wells were then washed three times at one min intervals. Samples (0.5 ml) were then collected at 1 minute intervals for scintillation counting with stimulation occurring at time 0 by adding buffer containing 1 mM IBMX, 10 μM Forskolin and 100 μM dibutyryl cyclic AMP. The 0.5 ml samples were collected into 24 well Top Count plates (Packard) and 1 ml of Microcint 40 scintillation cocktail (Packard) was added. ^36Cl^− radioactivity was determined in a Packard Top Count scintillation counter.

[2] = test system: BHK cells; assay: Indirect immunofluorescence localization of CFTR with M3A7; type: cell-based, Baby hamster; conditions: M3A7 staining, permeabilized cells
Method: Immunofluorescence microscopy in cells expressing ΔF508 CFTR was performed using the highly specific monoclonal antibody, M3A7 (Kartner et al., 1992, supra). Briefly, transformed cells were grown on coverslips, fixed in 70% cold methanol at −20° C. for 10 minutes, blocked using 1% BSA and 5% normal rabbit serum in PBS and were permeabilized by incubating in PBS+0.1% saponin for 1 h at 4° C. CFTR was detected by incubation with 10 μg/ml of M3A7 primary antibody for 60 min at room temperature. Rhodamine linked rabbit anti-mouse secondary antibody (DAKO) was diluted 1:50 in the same blocking solution for a further 1 h incubation. Photomicrographs were made using a Diagnostic Instruments Spot Cam digital camera on a Nikon Microphot-FXA microscope.

[3] = test system: BHK cells; assay: 35S-methionine pulse chase of CFTR maturation; type: cell-based, Baby hamster; conditions: for radioactivity of pulse-labeled immature band present in mature band (conversion of precursor to product): after 4 h of chase, electronic autoradiography; for maturation at the end of the pulse: end of the pulse (0 min); for conversion of precursor to mature endoH resistant form during chase: pulse chase
Method: Pulse chase studies were performed to determine the rate at which maturation occurred in the arginine-framed triplet substituted wild-type and ΔF508 CFTR polypeptides (FIG. 2). […] Cells were lysed at the end of the labeling period (0 chase time) or were further incubated in complete medium containing 5% fetal bovine serum and 1 mM methionine for the indicated times (chase). Cells were collected and lysed with the NP40 lysis buffer described above and centrifuged at 15,000×g for 15 min at 4° C. to obtain a soluble supernatant which was incubated overnight with the M3A7 primary antibody. Protein G-agarose (Gibco-BRL) was then used to remove the complexes formed which were washed four times with RIPA buffer, dissolved in electrophoresis sample buffer, and subsequently fractionated on SDS-7% acrylamide gels. Following fractionation, the gels were fixed in 30% methanol and 10% acetic acid, equilibrated in 1M sodium salicylate and dried for fluorography. Electronic autoradiography was performed with a Packard Instant Imager. […]

[4] = test system: CFTR chloride channels; assay: Single CFTR Cl- channel recording in planar lipid bilayers; type: biochemical, human; conditions: for Conductance: 300 mM Tris-HCl; for Conductance / Long mean closed time τc2 / Mean open time τ0 / Short mean closed time τc1: -75 mV, 2 mM MgATP; for open probability: 25° C.
Method: (§1) To further characterize the Cl^− channel activity, membrane vesicles were isolated from cells expressing wild-type, wild-type/4RK and ΔF508/4RK CFTR, fused with planar lipid bilayers and single channels were recorded (Aleksandrov, A. A., and Riordan, J. R. (1998) FEBS Lett. 431:97-101). Vesicles were prepared and phosphorylated with PKA as described previously (Aleksandrov and Riordan, 1998, supra). Briefly, planar lipid bilayers were painted onto a 0.2 mm hole drilled in a Teflon cup using a phospholipid solution in n-decane containing a 2:1 mixture of 1-palmitoyl-2-oleoyl-sn-glycero-3-phosphoethanolamine and 1-palmitoyl-2-oleoyl-sn-glycero-3-phosphoserine (20 mg/ml). The lipid bilayer separated 1.0 ml of solution in the Teflon cup (cis-side) from 4.0 ml of solution in an outer glass chamber (trans-side). Both chambers were magnetically stirred and thermostated. Heating and temperature control were established using a Temperature Control System TC2BIP (Cell MicroControls). Electrical contact with the solutions was provided by Ag/AgCl electrodes through agar bridges filled with 0.5 M KCl. The membrane potential difference was measured as the difference between trans and cis side potentials. The trans side was grounded and electrical measurements of the single channel current were performed under voltage clamp conditions using an Axopatch 200B (Axon Instruments) amplifier. The output signal was filtered with an 8-pole low pass Bessel Filter LPBF-48DG (NPI Electronic GmbH) with cut off frequency of 50 Hz and recorded on magnetic tape using a VR-10B (Instrutech Corp.) digital data recorded on a Sony SLV-440 VCR. For data analysis, the signal was digitized (Digidata 1200; Axon Instruments) with a sampling rate of 500 Hz and analyzed using pCLAMP 6.0 (Axon Instruments) software. Origin 4.0 (Microcal) software was used to fit all points histograms by multi-peak Gaussians. Membrane vesicles were prephosphorylated with PKA and added as a concentrated stock solution to the cis side to obtain a final protein concentration of 10-15 μg/ml. Measurements were made in symmetrical salts solutions containing, in mM: 300 Tris-HCl, 2 MgCl, 1 EGTA, pH=7.2, at a membrane potential of −75 mV. MgATP (2 mM) was added to the cis side only. Under these conditions any cationic channels present in the membrane vesicles are invisible and CFTR chloride channels appeared only after fusion of vesicles with an inside out orientation. Conductances for wild-type, wild-type/4RK and ΔF508/4RK were 10.7, 10.8, and 10.7 pS, respectively. Mean open times τ0 were 230, 1400, and 700 msec respectively. Short mean closed times τc1 were 10 msec in each case. Long mean closed times τc2 were 680, 2000, and 2800 msec, respectively. Conductance as a function of Cl^− concentration and temperature as well as anion selectivity of the CFTR ion channel were tested in control experiments showing good agreement with published data (Tabcharani, J. A et al. (1997) J. Gen. Physiol. 110:341-54).

[5] = target: T1, CFTR chloride channels (Homo sapiens, UniProt P13569, DEL508-508/V470M); assay: as above; type: biochemical; conditions: vesicles from BHK cells
T1 construct: These five fragments were ligated together to generate full length CFTR cDNA in pNUT; expressed in transfected cells; host or cells: BHK (baby hamster kidney) cells, stably transfected with pNUT-CFTR constructs; membrane vesicles fused with planar lipid bilayers
T1 sequence (P13569 with tags, fused parts or gaps V470M/DEL508-508): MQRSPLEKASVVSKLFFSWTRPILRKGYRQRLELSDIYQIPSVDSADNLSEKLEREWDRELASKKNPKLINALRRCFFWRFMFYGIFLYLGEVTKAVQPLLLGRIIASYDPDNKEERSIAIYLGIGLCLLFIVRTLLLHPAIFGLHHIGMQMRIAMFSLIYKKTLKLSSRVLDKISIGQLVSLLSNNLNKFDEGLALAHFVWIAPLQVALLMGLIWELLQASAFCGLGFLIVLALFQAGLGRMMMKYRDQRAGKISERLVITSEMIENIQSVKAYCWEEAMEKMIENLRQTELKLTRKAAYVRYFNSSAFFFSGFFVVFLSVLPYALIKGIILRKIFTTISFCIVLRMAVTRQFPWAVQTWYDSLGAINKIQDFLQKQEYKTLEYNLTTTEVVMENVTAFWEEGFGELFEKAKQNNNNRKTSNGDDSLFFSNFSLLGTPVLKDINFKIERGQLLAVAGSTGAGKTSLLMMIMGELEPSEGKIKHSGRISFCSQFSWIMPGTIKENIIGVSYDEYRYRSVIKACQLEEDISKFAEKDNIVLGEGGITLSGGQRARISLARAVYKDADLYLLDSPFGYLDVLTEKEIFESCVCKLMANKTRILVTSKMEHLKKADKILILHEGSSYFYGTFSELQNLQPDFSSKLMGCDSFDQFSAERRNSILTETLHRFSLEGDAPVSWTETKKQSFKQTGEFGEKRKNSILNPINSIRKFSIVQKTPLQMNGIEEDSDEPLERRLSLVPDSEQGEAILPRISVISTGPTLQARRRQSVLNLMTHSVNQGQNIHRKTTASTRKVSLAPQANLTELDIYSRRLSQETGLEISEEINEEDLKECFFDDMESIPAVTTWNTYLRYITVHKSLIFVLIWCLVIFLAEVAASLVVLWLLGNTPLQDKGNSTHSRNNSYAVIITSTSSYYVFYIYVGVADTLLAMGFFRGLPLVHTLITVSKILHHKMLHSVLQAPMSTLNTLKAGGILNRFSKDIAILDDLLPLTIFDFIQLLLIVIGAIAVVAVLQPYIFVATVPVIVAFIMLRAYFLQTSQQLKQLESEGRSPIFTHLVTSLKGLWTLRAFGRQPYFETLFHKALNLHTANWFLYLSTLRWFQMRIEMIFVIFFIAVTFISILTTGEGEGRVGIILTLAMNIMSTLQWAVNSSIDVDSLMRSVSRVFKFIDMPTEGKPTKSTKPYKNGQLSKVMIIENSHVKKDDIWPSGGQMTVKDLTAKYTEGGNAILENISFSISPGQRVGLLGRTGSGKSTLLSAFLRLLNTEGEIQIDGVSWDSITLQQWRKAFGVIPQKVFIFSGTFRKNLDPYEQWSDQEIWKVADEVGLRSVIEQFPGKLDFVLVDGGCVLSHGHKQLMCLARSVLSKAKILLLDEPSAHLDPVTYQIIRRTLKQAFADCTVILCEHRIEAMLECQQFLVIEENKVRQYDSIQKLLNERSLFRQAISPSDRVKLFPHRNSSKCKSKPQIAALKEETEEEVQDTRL
Method: as §1

[6] = test system: BHK cells; assay: Western blot of BHK cell extracts with M3A7 antibody, with endoglycosidase H digestion; type: cell-based, Baby hamster; conditions: ΔF508 CFTR background; for mature bands of lower mobility on Western blot: steady state, BHK cell extracts
Method: Baby hamster kidney cells (BHK) cells grown at 37° C. in 5% CO2 were employed as hosts for CFTR expression as described previously (Loo et al. (1998) EMBO J. 17:6879-6887; and Seibert, F. S et al. (1995) J. Biol. Chem. 270:2158-2162). Subconfluent BHK cells were transformed with the above wild-type or ΔF508 CFTR constructs using calcium phosphate precipitation (Chen, C., and Okayama, H. (1987) Mol. Cell. Biol. 7: 2745-2752). After growth in selective media containing 500 μM methotrexate, individual colonies were picked and amplified in the same selective media.
BHK cells were grown, collected and then lysed with 1% SDS; the DNA was sheared by cycling through a 22 gauge needle. Protein lysate (20 μg) from the sample were then subjected to SDS-PAGE on 7% polyacrylamide gels. Protein was electroblotted from the gel to nitrocellulose membrane and the membrane was probed with a mouse anti-CFTR monoclonal antibody, M3A7 (Kartner, N. et al. (1992) Nat. Genetics 1:321-7). Chemiluminescent detection was performed according to the manufacturer's recommendations (Pierce).
For endoglycosidase H treatment, cell lysates were diluted with 10 volumes of buffer (50 mM sodium acetate, pH 5.3, 0.5% Nonidet P-40, 1% β-mercaptoethanol plus a protease inhibitor mixture: 2 μg/ml aprotinin, 120 μg/ml benzamidine, […], 1 μg/ml leupepetin and 50 μg/ml pefabloc). This yielded a final SDS concentration of 0.1%. Samples were then incubated for 4 hr at 37° C. with 10 mU of endoglycosidase H (Boehringer Mannheim). The reactions were stopped by addition of 4 volumes of cold ethanol (−20° C.) to precipitate the proteins. Precipitated proteins were then resuspended in gel loading dye and subjected to SDS-PAGE and immunoblotting as above.

[7] = test system: BHK cells; assay: Cell surface biotinylation of CFTR on intact cell monolayers; type: cell-based, Baby hamster
Method: For cell surface biotinylation studies, cells grown to about 90% confluency were treated with 2 mM sodium butyrate for 18 h to augment CFTR expression. Dishes of cells were then placed on ice in a cold room for 30 minutes and all subsequent steps were performed. Cells washed with PBS containing 0.1 mM CaCl2 and 1.0 mM MgCl2, were labeled using 3 ml of 1 mg/ml EZ-Link Sulfo-NHS-SS-biotin (Pierce) in PBS, pH 8.0 for 30 minutes. Following washes in PBS+1% BSA and PBS, cells were incubated for 30 minutes in NP40 lysis buffer (0.09% NP40, 150 mM NaCl, 10 mM NH4MoO4, 50 mM Tris-HCl, pH 7.4), scraped and transferred to microfuge tubes. Insoluble materials were removed by centrifugation. Biotinylated proteins were then precipitated by incubation overnight with 50 μl of packed immobilized streptavidin beads (Pierce). Beads were washed with RIPA buffer (0.1% SDS, 1% DOC, 1% Triton X-100, 150 mM NaCl, 50 mM Tris-Hcl, pH 7.4) and proteins eluted with gel sample buffer for electrophoresis and Western blotting with M3A7 as detailed above.

| Substance | cAMP stimulated 36Cl- efflux rate [1] | CFTR localization by immunofluorescence [2] | conversion of precursor to mature endoH resistant form during chase [3] | Conductance [4] [pS] | Long mean closed time τc2 [4] [ms] | Mean open time τ0 [4] [ms] | Short mean closed time τc1 [4] [ms] | other results |
| --- | --- | --- | --- | --- | --- | --- | --- | --- |
| R516K: ΔF508 CFTR in which arginine 516 has been substituted with lysine | No detectable increase in efflux rate |  |  |  |  |  |  |  |
| R555K: ΔF508 CFTR in which arginine 555 has been substituted with lysine | No detectable increase in efflux rate |  |  |  |  |  |  |  |
| R766K: ΔF508 CFTR in which arginine 766 has been substituted with lysine | No detectable increase in efflux rate |  |  |  |  |  |  |  |
| wild-type CFTR: full-length human CFTR expressed from pNUT vector in BHK cells [reference compound] |  | strong uniform staining of mature CFTR over the entire cell surface | begins within an hour | 10.7 | 680 | 230 | 10 | radioactivity of pulse-labeled immature band present in mature band (conversion of precursor to product) [3]: ~30%; maturation at the end of the pulse [3]: no maturation; open probability [4]: ~0.25 |
| wild-type/4RK: wild-type CFTR in which four arginines (R29K, R516K, R555K, R766K) have been substituted with lysine |  |  | more rapid maturation | 10.8 | 2000 | 1400 | 10 | maturation at the end of the pulse [3]: already evident; open probability [4]: ~0.61 |
| ΔF508 CFTR: export-incompetent cystic fibrosis causing CFTR mutant lacking phenylalanine 508 | No detectable increase in efflux rate | Perinuclear staining only | no conversion; also recorded: fails to mature even after two hours |  |  |  |  | detection of CFTR-like single channels [5]: never been able to detect CFTR-like single channels |
| ΔF508/4RK: ΔF508 CFTR having all four arginines (29, 516, 555, 766) substituted with lysine | more than half as rapid as those from cells expressing wild-type CFTR | extension of the staining more peripherally | readily apparent | 10.7 | 2800 | 700 | 10 | endoglycosidase H sensitivity of the large bands [6]: Endoglycosidase-H insensitivity; mature bands of lower mobility on Western blot [6]: bands of lower mobility are produced; accessibility of mature band to surface biotinylation [7]: accessible to the impermeant amino reactive biotinylation reagent; radioactivity of pulse-labeled immature band present in mature band (conversion of precursor to product) [3]: approximately 10% |
| ΔF508/R29K: ΔF508 CFTR in which arginine 29 has been substituted with lysine | low rates of ^36Cl^− efflux occurred at delayed times after stimulation |  |  |  |  |  |  | endoglycosidase H sensitivity of the large bands [6]: Endoglycosidase-H insensitivity; mature bands of lower mobility on Western blot [6]: bands of lower mobility are produced |
